For this assay, the target named is T1, Apc holoenzyme (Apc core complex plus Apcε) (Aromatoleum aromaticum, UniProt Q5P5G2+Q5P5G4).
T1 construct: gene apc3
Particulars: ATP sites in Apcα and Apcα′ inferred from structure.

T1 sequence (Q5P5G4 2-732): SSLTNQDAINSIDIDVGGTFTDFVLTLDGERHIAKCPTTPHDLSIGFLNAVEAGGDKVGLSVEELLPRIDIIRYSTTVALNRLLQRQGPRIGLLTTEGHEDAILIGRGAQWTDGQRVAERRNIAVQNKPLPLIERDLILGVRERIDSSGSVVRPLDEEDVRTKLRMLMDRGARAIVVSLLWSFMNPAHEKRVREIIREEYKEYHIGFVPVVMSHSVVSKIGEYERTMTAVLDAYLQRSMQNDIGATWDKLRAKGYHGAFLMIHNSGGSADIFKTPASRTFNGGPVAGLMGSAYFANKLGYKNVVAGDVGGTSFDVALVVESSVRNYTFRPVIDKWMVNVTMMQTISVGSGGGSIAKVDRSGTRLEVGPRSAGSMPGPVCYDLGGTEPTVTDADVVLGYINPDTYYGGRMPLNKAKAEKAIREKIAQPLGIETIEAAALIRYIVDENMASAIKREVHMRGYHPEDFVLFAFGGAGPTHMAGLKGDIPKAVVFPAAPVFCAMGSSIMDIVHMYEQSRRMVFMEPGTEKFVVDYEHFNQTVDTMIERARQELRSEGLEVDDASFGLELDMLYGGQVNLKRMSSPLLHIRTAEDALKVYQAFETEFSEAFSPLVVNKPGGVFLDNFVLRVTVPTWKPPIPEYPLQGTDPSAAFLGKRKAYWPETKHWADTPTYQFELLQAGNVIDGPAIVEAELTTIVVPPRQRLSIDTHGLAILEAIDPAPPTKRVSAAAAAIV
T1 sequence (Q5P5G2 whole entry): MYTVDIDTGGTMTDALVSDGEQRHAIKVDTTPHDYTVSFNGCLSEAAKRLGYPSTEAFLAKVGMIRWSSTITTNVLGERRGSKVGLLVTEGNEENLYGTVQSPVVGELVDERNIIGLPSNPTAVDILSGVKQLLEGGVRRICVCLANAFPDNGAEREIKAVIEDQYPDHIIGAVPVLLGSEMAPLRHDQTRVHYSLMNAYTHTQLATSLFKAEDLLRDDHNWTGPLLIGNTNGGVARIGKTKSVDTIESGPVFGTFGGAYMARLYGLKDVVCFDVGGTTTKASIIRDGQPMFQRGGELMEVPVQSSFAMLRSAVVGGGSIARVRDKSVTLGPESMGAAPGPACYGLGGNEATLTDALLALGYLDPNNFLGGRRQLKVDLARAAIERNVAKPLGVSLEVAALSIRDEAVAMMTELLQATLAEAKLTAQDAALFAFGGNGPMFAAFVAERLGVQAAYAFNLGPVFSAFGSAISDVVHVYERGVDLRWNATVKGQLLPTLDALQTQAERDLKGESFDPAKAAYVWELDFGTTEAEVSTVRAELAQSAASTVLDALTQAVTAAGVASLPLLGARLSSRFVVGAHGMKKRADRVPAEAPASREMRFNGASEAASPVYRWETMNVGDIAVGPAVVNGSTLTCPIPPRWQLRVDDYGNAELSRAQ
T1 sequence (Q5P5G5 2-684 partner): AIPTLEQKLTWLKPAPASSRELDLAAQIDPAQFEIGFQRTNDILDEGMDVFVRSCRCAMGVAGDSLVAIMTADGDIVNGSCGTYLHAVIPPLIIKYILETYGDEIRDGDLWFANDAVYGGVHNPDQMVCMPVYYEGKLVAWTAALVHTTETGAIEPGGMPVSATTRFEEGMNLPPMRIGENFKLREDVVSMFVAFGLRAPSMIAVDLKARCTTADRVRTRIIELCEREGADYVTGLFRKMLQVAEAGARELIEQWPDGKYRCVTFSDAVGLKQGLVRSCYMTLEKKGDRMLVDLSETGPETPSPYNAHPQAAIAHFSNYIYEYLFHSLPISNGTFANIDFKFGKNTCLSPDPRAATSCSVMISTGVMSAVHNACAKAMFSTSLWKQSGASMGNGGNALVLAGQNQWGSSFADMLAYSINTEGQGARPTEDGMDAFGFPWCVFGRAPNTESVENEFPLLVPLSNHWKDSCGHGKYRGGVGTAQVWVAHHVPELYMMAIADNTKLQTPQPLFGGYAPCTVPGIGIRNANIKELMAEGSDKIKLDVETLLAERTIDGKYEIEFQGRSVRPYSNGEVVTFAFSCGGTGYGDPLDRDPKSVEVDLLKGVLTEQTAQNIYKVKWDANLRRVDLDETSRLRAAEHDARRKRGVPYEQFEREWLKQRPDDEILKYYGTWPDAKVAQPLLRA
T1 sequence (Q5P5G3 whole entry partner): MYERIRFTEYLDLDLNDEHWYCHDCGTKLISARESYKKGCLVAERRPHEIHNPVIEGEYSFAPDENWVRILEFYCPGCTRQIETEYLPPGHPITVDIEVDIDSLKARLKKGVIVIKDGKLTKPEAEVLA
T1 sequence (Q5P5G6 whole entry partner): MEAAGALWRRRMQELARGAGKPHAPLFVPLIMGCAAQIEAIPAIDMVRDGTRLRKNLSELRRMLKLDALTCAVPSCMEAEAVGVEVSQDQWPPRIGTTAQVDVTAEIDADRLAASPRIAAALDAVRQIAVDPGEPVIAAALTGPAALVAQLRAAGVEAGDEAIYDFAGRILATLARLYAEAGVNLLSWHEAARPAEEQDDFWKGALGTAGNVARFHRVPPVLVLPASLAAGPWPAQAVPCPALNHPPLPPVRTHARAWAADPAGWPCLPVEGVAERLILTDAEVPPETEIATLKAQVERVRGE

On to `Nc1ncnc2c1ncn2[C@@H]1O[C@H](COP(=O)(O)OP(=O)(O)OP(=O)(O)O)[C@@H](O)[C@H]1O` [ATP], for which the ATPase activity assay result is “confirmed by determination of the ATPase activity and carboxylation of acetophenone”.

Source of the values: publication PMC5214803 (Scientific Reports, 2017).
